The source of these data is patent US20230219986A1, “NOVEL AMINOPYRIMIDINE EGFR INHIBITOR” (QILU PHARMACEUTICAL CO., LTD., priority 2020, published 2023).

For experiment [1], the target named is Ba/F3 L858R/T790M/C797S EGFR triple mutant cell line (Homo sapiens, UniProt P00533, T790M/C797S/L858R, cells depend on it). Put plainly: Cell proliferation inhibition experiment (CellTiter-Glo), Ba/F3 L858R/T790M/C797S. The experiment is classed as cell-based. The settings on record: 72 hours, Cell Titer-Glo, read-out: Ba/F3 (L858R/T790M/C797S) IC50. In general terms: In ATP-based viability assays light output follows the ATP content of the culture.
Ba/F3 L858R/T790M/C797S EGFR triple mutant cell line, sequence (P00533 whole entry T790M/C797S/L858R): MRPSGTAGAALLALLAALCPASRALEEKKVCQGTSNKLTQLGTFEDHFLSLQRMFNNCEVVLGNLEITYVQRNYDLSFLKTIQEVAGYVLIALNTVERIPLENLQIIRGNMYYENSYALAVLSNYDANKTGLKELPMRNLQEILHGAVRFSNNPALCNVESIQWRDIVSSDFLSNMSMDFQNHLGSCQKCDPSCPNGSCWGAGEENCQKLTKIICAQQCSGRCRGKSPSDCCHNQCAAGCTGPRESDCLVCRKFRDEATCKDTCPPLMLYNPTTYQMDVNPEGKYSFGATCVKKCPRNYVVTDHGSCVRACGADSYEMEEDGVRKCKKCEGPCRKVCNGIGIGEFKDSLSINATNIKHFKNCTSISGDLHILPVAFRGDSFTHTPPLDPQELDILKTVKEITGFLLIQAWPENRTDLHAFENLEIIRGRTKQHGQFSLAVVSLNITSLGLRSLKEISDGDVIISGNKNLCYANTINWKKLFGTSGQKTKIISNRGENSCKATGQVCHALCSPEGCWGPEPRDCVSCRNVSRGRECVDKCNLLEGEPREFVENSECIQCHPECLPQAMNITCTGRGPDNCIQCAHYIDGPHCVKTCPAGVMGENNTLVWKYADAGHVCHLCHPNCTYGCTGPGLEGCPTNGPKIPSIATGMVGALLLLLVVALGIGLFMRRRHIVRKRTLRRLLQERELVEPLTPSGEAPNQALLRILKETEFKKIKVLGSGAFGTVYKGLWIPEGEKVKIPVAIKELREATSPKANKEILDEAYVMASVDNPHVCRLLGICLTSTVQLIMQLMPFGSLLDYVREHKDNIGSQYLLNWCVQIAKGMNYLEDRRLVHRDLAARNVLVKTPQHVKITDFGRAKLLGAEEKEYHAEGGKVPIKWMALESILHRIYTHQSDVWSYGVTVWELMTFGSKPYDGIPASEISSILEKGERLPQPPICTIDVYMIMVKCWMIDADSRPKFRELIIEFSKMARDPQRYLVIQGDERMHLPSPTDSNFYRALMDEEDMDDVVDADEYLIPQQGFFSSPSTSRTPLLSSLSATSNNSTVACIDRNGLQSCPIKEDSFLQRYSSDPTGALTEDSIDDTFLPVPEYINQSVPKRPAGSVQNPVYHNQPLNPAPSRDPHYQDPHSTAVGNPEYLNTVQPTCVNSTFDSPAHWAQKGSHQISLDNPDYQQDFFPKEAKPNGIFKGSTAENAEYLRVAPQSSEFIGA

Experiment [2] concerns the target T1, L858R/T790M/C797S triple mutant EGFR (Homo sapiens, UniProt P00533, C797S/L858R/T790M).
T1 construct: purchased Signalchem
Put plainly: Enzymology experiment in vitro (HTRF/FRET kinase activity), L858R/T790M/C797S triple mutant EGFR. The experiment is classed as biochemical. The following applies: HTRF KinEASE-TK, read-out: EGFR (L858R/T790M/C797S) IC50. Put shortly: (§1)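 Kinase reaction run 40 min at room temperature with peptide and ATP after a 10 min compound–enzyme preincubation. Phosphorylation read as HTRF signal after 1 h with Eu³⁺ antibody, XL665-streptavidin and EDTA (Cisbio KinEASE-TK).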
(TR-FRET usually uses a lanthanide donor and a delayed reading to cut background.)

Experiment [3] addresses Ba/F3 De119/T790M/C797S EGFR triple mutant cell line (Homo sapiens, UniProt P00533, T790M/C797S, cells depend on it, form not given). Put plainly: Cell proliferation inhibition experiment (CellTiter-Glo), Ba/F3 De119/T790M/C797S. The experiment is classed as cell-based. The settings on record: Ba/F3 Del19/T790M/C797S EGFR triple mutant cells, 72 hours, Cell Titer-Glo; read-out: Ba/F3 (Del19/T790M/C797S) IC50.

In another experiment the target is T2, wild-type EGFR (Homo sapiens, UniProt P00533).
T2 construct: purchased Signalchem
T2 sequence (P00533 25-1210): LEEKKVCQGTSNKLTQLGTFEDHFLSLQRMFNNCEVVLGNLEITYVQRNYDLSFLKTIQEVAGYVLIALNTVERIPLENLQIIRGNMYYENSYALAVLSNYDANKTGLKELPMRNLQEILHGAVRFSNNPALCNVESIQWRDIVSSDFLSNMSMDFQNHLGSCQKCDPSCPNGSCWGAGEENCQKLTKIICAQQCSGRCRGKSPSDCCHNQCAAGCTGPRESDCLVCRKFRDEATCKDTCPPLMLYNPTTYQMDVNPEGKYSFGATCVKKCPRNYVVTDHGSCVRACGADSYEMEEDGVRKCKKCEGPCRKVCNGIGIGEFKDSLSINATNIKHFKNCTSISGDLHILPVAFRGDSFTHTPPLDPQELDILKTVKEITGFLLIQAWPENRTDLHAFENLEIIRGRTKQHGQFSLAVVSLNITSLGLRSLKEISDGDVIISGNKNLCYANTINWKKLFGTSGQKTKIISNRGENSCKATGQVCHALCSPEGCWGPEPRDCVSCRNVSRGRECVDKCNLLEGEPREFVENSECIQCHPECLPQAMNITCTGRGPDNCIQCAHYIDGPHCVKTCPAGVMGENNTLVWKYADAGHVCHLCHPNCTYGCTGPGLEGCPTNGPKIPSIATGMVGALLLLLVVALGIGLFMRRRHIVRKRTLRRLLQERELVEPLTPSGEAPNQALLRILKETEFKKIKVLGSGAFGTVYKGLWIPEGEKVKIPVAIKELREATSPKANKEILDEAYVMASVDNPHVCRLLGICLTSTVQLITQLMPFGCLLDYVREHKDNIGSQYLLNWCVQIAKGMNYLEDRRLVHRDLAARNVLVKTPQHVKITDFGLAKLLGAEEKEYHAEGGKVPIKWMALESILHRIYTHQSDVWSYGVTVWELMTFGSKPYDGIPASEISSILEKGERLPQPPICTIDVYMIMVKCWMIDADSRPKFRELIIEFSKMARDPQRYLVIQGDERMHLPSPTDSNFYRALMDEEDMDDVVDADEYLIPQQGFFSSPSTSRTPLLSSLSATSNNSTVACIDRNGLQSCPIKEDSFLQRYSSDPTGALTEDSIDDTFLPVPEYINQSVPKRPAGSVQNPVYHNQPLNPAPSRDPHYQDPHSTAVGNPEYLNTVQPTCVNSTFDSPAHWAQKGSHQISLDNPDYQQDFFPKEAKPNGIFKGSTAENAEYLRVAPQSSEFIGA
Put plainly: Enzymology experiment in vitro (HTRF/FRET kinase activity), wild-type EGFR. The settings on record: HTRF KinEASE-TK, read-out: EGFR (WT) IC50. The experiment is classed as biochemical. The method, boiled down:
as §1

The test system of experiment [4] is EGFR wild-type cell line A431. Put plainly: Cell proliferation inhibition experiment (CellTiter-Glo), A431. The experiment is classed as cell-based. The following applies: Homo sapiens, A-431, 72 h, A431 cells, Cell Titer-Glo, read-out: A431 EGFR WT IC50. The method, boiled down:
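Luminescent CellTiter-Glo readout, 30 min at room temperature, after 72 h compound exposure at 37° C., 5% CO2 with 0.1% DMSO final. EGFR wild-type A431 cells were seeded at 800 per well and grown 24 h before dosing. IC50 derived from the dose-response.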

Structures are written as SMILES.

Ba/F3 De119/T790M/C797S EGFR triple mutant cell line, sequence (P00533 with tags, fused parts or gaps DEL746-750/T790M/C797S, form open): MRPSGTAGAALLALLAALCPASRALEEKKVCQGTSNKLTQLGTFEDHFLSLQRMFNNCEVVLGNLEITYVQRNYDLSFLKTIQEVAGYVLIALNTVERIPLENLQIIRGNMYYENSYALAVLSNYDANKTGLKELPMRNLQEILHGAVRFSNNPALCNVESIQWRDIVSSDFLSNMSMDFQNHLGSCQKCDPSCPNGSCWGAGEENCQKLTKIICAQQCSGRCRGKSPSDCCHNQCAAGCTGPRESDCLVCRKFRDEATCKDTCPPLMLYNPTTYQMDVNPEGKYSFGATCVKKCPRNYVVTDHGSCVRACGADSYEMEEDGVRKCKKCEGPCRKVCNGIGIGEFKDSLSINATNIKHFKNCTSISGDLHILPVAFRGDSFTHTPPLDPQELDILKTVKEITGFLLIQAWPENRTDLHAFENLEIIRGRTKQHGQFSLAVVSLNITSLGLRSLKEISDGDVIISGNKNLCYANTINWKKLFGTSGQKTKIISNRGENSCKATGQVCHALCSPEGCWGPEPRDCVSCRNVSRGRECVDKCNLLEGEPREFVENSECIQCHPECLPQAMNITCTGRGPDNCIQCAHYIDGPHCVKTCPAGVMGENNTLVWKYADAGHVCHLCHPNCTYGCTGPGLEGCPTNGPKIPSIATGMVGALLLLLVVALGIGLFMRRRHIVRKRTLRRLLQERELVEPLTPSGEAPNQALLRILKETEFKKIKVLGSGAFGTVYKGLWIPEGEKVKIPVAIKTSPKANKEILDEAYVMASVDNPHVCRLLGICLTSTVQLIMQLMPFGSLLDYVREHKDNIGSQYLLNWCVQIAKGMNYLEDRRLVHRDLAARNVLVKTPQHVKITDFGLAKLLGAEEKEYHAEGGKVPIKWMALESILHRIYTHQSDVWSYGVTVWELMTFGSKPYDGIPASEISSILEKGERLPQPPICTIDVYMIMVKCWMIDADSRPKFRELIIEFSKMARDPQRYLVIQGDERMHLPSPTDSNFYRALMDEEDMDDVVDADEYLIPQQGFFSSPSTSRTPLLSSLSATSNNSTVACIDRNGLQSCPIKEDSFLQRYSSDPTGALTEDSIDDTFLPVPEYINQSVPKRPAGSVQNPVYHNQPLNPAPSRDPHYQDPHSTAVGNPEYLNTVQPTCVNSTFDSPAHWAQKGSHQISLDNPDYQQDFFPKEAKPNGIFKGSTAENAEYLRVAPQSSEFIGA
T1 sequence (P00533 25-1210 T790M/C797S/L858R): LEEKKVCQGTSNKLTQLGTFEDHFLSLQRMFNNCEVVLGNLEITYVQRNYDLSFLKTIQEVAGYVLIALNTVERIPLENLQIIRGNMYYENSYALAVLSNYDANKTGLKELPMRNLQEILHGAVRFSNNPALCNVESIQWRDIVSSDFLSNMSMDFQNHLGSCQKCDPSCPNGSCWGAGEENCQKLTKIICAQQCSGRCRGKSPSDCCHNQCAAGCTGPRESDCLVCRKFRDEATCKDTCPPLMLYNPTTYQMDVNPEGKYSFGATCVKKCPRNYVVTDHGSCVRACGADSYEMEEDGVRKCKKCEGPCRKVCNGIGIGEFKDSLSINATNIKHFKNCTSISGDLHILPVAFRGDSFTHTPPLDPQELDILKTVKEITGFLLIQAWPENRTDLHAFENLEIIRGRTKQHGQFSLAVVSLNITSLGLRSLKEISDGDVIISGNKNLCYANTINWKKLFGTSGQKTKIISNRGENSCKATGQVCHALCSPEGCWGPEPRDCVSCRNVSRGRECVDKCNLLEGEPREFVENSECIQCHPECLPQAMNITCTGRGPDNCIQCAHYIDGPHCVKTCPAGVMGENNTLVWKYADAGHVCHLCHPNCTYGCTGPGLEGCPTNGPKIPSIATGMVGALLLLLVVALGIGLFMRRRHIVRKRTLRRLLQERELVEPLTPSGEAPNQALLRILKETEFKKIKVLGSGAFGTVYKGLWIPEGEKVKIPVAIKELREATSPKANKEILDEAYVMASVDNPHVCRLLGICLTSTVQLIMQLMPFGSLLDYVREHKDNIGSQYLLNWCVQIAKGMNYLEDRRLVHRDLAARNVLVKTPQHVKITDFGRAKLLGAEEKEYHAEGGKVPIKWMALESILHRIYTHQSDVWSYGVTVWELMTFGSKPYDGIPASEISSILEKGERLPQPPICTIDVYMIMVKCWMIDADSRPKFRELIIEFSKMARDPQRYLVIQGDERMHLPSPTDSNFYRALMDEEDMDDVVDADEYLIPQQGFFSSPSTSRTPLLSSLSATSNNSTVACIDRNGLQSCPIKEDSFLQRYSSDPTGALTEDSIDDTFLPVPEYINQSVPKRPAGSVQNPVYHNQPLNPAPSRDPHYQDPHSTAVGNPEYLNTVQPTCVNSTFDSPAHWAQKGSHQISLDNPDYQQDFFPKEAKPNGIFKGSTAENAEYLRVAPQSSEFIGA

For `COc1cc(N2CCNC(=O)C2)c(-c2cnn(C)c2)cc1Nc1ncc(Br)c(Nc2ccc3nccnc3c2P(C)(C)=O)n1` [compound 105], the GI50 in experiment [1] is 61.9 nM; in experiment [3], 20.9 nM. For the same molecule, the IC50 in experiment [2] came to 0.16 nM; on wild-type EGFR, 5.62 nM; in experiment [4], 1190 nM.

`COc1cc(N2C[C@@H]3C[C@H]2CO3)c(-c2cnn(C)c2)cc1Nc1ncc(Br)c(Nc2ccc3nccnc3c2P(C)(C)=O)n1` [compound 107]: the GI50 in experiment [1] came to 30.9 nM; in experiment [3] it was 11.2 nM. Moreover, the IC50 in experiment [2] was determined as 1.3 nM; on wild-type EGFR it was 26.4 nM; in experiment [4], 380 nM.

Turning to `COc1cc(N2CCN(S(C)(=O)=O)CC2)c(-c2cnn(C)c2)cc1Nc1ncc(Br)c(Nc2ccc3nccnc3c2P(C)(C)=O)n1` [compound 110], the GI50 in experiment [1] was determined as 10.9 nM; in experiment [3], 3.7 nM. In addition, the values for the IC50 (in experiment [2]; on wild-type EGFR; in experiment [4]) were 0.57 nM, 1.54 nM and 162 nM, respectively.

Regarding `COc1cc(N2C[C@@H](C)O[C@@H](C)C2)c(-c2cnn(C)c2)cc1Nc1ncc(Br)c(Nc2ccc3nccnc3c2P(C)(C)=O)n1` [compound 111], the GI50 stood at 4.79 nM in experiment [1] and 3.22 nM in experiment [3]. In addition, the results for the IC50 (in experiment [2]; on wild-type EGFR; in experiment [4]) were 1.38 nM, 5.65 nM and 210 nM, respectively.

As to `COc1cc(N2CCN(C(N)=O)CC2)c(-c2cnn(C)c2)cc1Nc1ncc(Br)c(Nc2ccc3nccnc3c2P(C)(C)=O)n1` [compound 112], the GI50 in experiment [1] came out at 161 nM; in experiment [3], 57 nM. Also, the IC50 in experiment [2] came to 0.26 nM; at wild-type EGFR, 0.92 nM; in experiment [4], 1100 nM.

Turning to `COc1cc(N2C[C@H]3C[C@@H]2CO3)c(-c2cnn(C)c2)cc1Nc1ncc(Br)c(Nc2ccc3nccnc3c2P(C)(C)=O)n1` [compound 114], the values for the GI50 in experiment [1] and in experiment [3] were 11.2 nM and 5.86 nM, respectively. The IC50 was found to be 0.56 nM in experiment [2], 5.41 nM on wild-type EGFR and 271 nM in experiment [4].

As to `COc1cc(N2CCOC(CO)C2)c(-c2cnn(C)c2)cc1Nc1ncc(Br)c(Nc2ccc3nccnc3c2P(C)(C)=O)n1` (centres unmarked) [compound 115], the figures for the GI50 in experiment [1] and in experiment [3] were 16.1 nM and 6.53 nM, respectively. The IC50 in experiment [2] is 0.4 nM; at wild-type EGFR it was 1.65 nM; in experiment [4], 159 nM.

On to `COc1cc(N2CCN(C(=O)C3CC3)CC2)c(-c2cnn(C)c2)cc1Nc1ncc(Br)c(Nc2ccc3nccnc3c2P(C)(C)=O)n1` [compound 116], for which the GI50 stood at 8.15 nM in experiment [1] and 2.25 nM in experiment [3]. Besides, the IC50 in experiment [2] turned out to be 1.31 nM; on wild-type EGFR, 3.13 nM; in experiment [4], 169 nM.

On to `COc1cc(N2CCC(N3CCN(C)CC3)CC2)c(-c2cnn(C)c2)cc1Nc1ncc(F)c(Nc2ccc3nccnc3c2P(C)(C)=O)n1` [compound 119], for which the GI50 in experiment [1] worked out at 239 nM; in experiment [3], 36.6 nM. Besides, the figures for the IC50 (in experiment [2]; at wild-type EGFR; in experiment [4]) were 1.3 nM, 4.07 nM and 639 nM, respectively.

As for `COc1cc(N2CCOC(C)(C)C2)c(-c2cnn(C)c2)cc1Nc1ncc(Br)c(Nc2ccc3nccnc3c2P(C)(C)=O)n1` [compound 120], the GI50 in experiment [1] was determined as 8.67 nM; in experiment [3] it was 2.62 nM. The IC50 in experiment [2] worked out at 1.17 nM; on wild-type EGFR it was 9.84 nM; in experiment [4], 197 nM.

In the case of `COc1cc(N2CCC(O)CC2)c(-c2cnn(C)c2)cc1Nc1ncc(Br)c(Nc2ccc3nccnc3c2P(C)(C)=O)n1` [compound 121, (6-((5-bromo-2-((4-(4-hydroxypiperidin-1-yl)-2-methoxy-5-(1-methyl-1H-pyrazol-4-yl)phenyl)amino]pyrimidin-4-yl)amino)quinoxalin-5-yl)dimethylphosphine oxide], the GI50 came to 6.16 nM in experiment [1] and 1.61 nM in experiment [3]. Also, the values for the IC50 (in experiment [2]; on wild-type EGFR; in experiment [4]) were 0.25 nM, 0.67 nM and 150 nM, respectively.

For `CN(C)CCN1CCOc2c(Nc3ncc(Br)c(Nc4ccc5nccnc5c4P(C)(C)=O)n3)cc(-c3cnn(C)c3)cc21` [compound 122], the GI50 in experiment [1] came out at 9.96 nM; in experiment [3] it was 2.07 nM. The IC50 in experiment [2] was 0.62 nM; at wild-type EGFR, 3.42 nM; in experiment [4], 37.2 nM.

As to `Cn1cc(-c2cc(Nc3ncc(Br)c(Nc4ccccc4P(C)(C)=O)n3)c(OCC(F)(F)F)nc2N2CCOCC2)cn1` [compound 123], the GI50 amounted to 82 nM in experiment [1] and 24.3 nM in experiment [3]. Moreover, the IC50 in experiment [2] turned out to be 1.12 nM; on wild-type EGFR, 121 nM; in experiment [4], 8840 nM.

On to `COc1cc(N2CCC(F)CC2)c(-c2cnn(C)c2)cc1Nc1ncc(Br)c(Nc2ccc3nccnc3c2P(C)(C)=O)n1` [compound 124], for which the GI50 was determined as 7.93 nM in experiment [1] and 3.93 nM in experiment [3]. Moreover, the figures for the IC50 (in experiment [2]; at wild-type EGFR; in experiment [4]) were 1.2 nM, 8.35 nM and 516 nM, respectively.

For the molecule `COc1cc(N2CCOCC2)c(-c2cnn(C)c2)cc1Nc1ncc(Br)c(Nc2ccccc2NS(=O)(=O)C2CC2)n1` [compound 125], the GI50 in experiment [1] was 14.4 nM; in experiment [3], 5.87 nM. Also, the IC50 in experiment [2] was 0.53 nM; on wild-type EGFR it was 23.8 nM; in experiment [4], 490 nM.

Take `COc1cc(N2CCOCC2)c(-c2cnn(C)c2)cc1Nc1ncc(Br)c(Nc2ccc3nccnc3c2NS(C)(=O)=O)n1` [compound 126]: the results for the GI50 in experiment [1] and in experiment [3] were 3.81 nM and 0.93 nM, respectively. Further, the figures for the IC50 (in experiment [2]; at wild-type EGFR; in experiment [4]) were 0.15 nM, 1.55 nM and 286 nM, respectively.

On to `COC[C@@H]1CN(c2cc(OC)c(Nc3ncc(Br)c(Nc4ccc5nccnc5c4P(C)(C)=O)n3)cc2-c2cnn(C)c2)CCO1` [compound 127], for which the GI50 in experiment [1] was 4.18 nM; in experiment [3], 0.59 nM. Moreover, the IC50 was 0.24 nM in experiment [2], 2.83 nM at wild-type EGFR and 170 nM in experiment [4].

Take `COc1cc(N2CCC(OC)C2)c(-c2cnn(C)c2)cc1Nc1ncc(Br)c(Nc2ccc3nccnc3c2P(C)(C)=O)n1` (centres unmarked) [compound 128]: the GI50 in experiment [1] came out at 11.9 nM; in experiment [3], 2.86 nM. Moreover, the IC50 in experiment [2] was found to be 0.53 nM; on wild-type EGFR, 6.83 nM; in experiment [4], 397 nM.

Take `COc1cc(N2CCN3CCCC3C2)c(-c2cnn(C)c2)cc1Nc1ncc(Br)c(Nc2ccc3nccnc3c2P(C)(C)=O)n1` (centres unmarked) [compound 130]: the GI50 in experiment [1] amounted to 9 nM; in experiment [3], 1 nM. In addition, the IC50 came out at 0.05 nM in experiment [2], 1.44 nM on wild-type EGFR and 73.5 nM in experiment [4].

For `COc1cc(N2CCN3CCCCC3C2)c(-c2cnn(C)c2)cc1Nc1ncc(Br)c(Nc2ccc3nccnc3c2P(C)(C)=O)n1` (centres unmarked) [compound 131], the GI50 in experiment [1] amounted to 7.17 nM; in experiment [3], 0.6 nM. Besides, the values for the IC50 (in experiment [2]; at wild-type EGFR; in experiment [4]) were 0.12 nM, 2.57 nM and 67.8 nM, respectively.

For `COCCN1CCN(c2cc(OC)c(Nc3ncc(Br)c(Nc4ccccc4NS(C)(=O)=O)n3)cc2-c2cnn(C)c2)CC1` [compound 132], the values for the GI50 in experiment [1] and in experiment [3] were 30 nM and 2.45 nM, respectively. For the same molecule, the IC50 amounted to 0.07 nM in experiment [2], 5.71 nM on wild-type EGFR and 270 nM in experiment [4].

For the molecule `COc1cc(N2CCC3(CCN(CCF)CC3)CC2)c(-c2cnn(C)c2)cc1Nc1ncc(Br)c(Nc2ccc3nccnc3c2P(C)(C)=O)n1` [compound 133, (6-((5-bromo-2-((4-(9-(2-fluoroethyl)-3,9-diazaspiro[5.5]undecan-3-yl)-2-methoxy-5-(1-methyl-1H-pyrazol-4-yl)phenyl)amino)pyrimidin-4-yl)amino)quinoxalin-5-yl)dimethylphosphine oxide], the values for the GI50 in experiment [1] and in experiment [3] were 2.85 nM and 0.64 nM, respectively. The IC50 in experiment [2] is 0.15 nM; on wild-type EGFR it was 0.78 nM; in experiment [4], 82.8 nM.

Take `COc1cc(N2CCOC(C)C2)c(-c2cnn(C)c2)cc1Nc1ncc(Br)c(Nc2ccc3nccnc3c2P(C)(C)=O)n1` (centres unmarked) [compound 134]: the GI50 was 7.82 nM in experiment [1] and 1.02 nM in experiment [3]. Further, the IC50 in experiment [2] was found to be 0.21 nM; on wild-type EGFR, 3.57 nM; in experiment [4], 316 nM.

`COc1cc(N2CCN(CCF)CC2)c(-c2cnn(C)c2)cc1Nc1ncc(Br)c(Nc2cc3c(cc2P(C)(C)=O)CC3)n1` [compound 138]: the figures for the GI50 in experiment [1] and in experiment [3] were 11.9 nM and 9.31 nM, respectively. The IC50 in experiment [2] amounted to 0.53 nM; on wild-type EGFR, 30.7 nM; in experiment [4], 630 nM.

As for `COCCN1CCC2(CC1)CCN(c1cc(OC)c(Nc3ncc(Br)c(Nc4ccc5nccnc5c4P(C)(C)=O)n3)cc1-c1cnn(C)c1)CC2` [compound 139], the results for the GI50 in experiment [1] and in experiment [3] were 2.33 nM and 1.59 nM, respectively. The figures for the IC50 (in experiment [2]; at wild-type EGFR; in experiment [4]) were 0.24 nM, 0.57 nM and 61 nM, respectively.
